Details of data set [1]: method as in NCT04385420; EudraCT 2021-005225-25. To be noted: two phase 1 studies in healthy volunteers, ref NCT04385420; EudraCT 2021-005225-25; cited from earlier work.
In data set [2] the test system is SARS-CoV-2 (BetaCoV/Munich/BavPat1/2020).
Another data set has as its system human PBMCs. The experiment in a line: Cytokine and chemokine levels in LPS-stimulated human PBMCs (ELISA). The class given is cell-based. To be noted: 1 µg/mL LPS, 10 µg/mL zapnometinib, 6 h, vs untreated control. How it is done:
Human peripheral blood mononuclear cells (PBMCs) were isolated from healthy volunteers registered with the Biobank of the Department of Immunology at the University of Tuebingen, after informed consent documented in writing. Ethical approval was obtained upon review by the Ethics Board of the Medical Faculty of the Eberhard Karls University Tuebingen and the University Hospital Tuebingen (887/2020BO2). Briefly, 50 ml whole blood (roughly 5x10^7 PBMCs) of two donors were taken in 50 ml syringes (BD Biosciences, Franklin Lakes, New Jersey, USA) supplied with heparin-natrium (100.000 I.E./ml; Braun, Melsungen, Germany). The whole blood was mixed with PBS (Gibco, Carlsbad, California, USA) in a 1:1 ratio in 50 ml tubes (Greiner Bio-One, Frickenhausen, Germany), and PBMCs were subsequently isolated from the whole blood by density gradient centrifugation using Histopaque®-1077 (Sigma-Aldrich, St. Louis, Missouri, USA) as density gradient medium. Five millilitres of plasma per donor were preserved for cell culture medium preparation. The PBMCs were then purified by washing them twice with PBS.
2x10^6 human PBMCs from two donors each were suspended in 1 mL RPMI 1640 medium (Gibco) containing 5% autologous plasma, 1% penicillin/streptomycin (Sigma-Aldrich), and 1% L-glutamine (Sigma-Aldrich) and were treated with 1 μg/mL LPS from E. coli O55:B5 (prepared in PBS) and 10 μg/mL zapnometinib (prepared in DMSO and diluted in cell culture medium to a final concentration of 0.1% DMSO) for 6 h at 37°C and 5% CO2. The supernatants (cell culture medium) were collected and stored at -20°C until analysis by ELISA. Ready-to-use ELISA kits (Invitrogen, Waltham, Massachusetts, USA) were used according to the manufacturer’s instructions to determine the levels of the following cytokines: IL-1β, IL-6, IL-8, IP-10, MCP-1, MIP-1α, and TNF-α. Briefly, the samples and standards were applied to ELISA plates pre-coated with specific antibodies targeting the cytokines of interest. Biotinylated detection antibodies binding to the cytokines of interest were added to the wells followed by a horseradish peroxidase (HRP)-streptavidin conjugate, which binds to the biotinylated detection antibodies. Unbound cytokines, detection antibodies, and HRP-streptavidin conjugate were removed by washing. Tetramethylbenzidine (TMB) substrate was added, and the color change in the wells served as the readout for the ELISA. Optical density (OD) at 450 nm was measured using a SpectraMAX Plus 384 microplate reader. For IL-1β, IL-8, MCP-1, and TNF-α the OD was also read at a reference wavelength of 620 nm, and for IL-6 at a reference wavelength of 550 nm. For IP-10 and MIP-1α no reference wavelength was used. Cytokine and chemokine concentrations were calculated following the manufacturer’s instructions for interpolating unknown concentrations from a standard curve.
A general note: An ELISA detects its analyte on a solid surface through an enzyme-linked reagent.

Another data set deals with HMGB1, GLDH, SELP. The data set can be described thus: Candidate safety biomarker analysis in hamster serum (IA-LC-MS/MS). The class given is in vivo, Syrian hamsters. As for the experimental part: Serum samples from hamsters collected at pre- infection (0 dpi) and post-infection (4 dpi) and treatment time points were analyzed to evaluate the levels of various candidate safety biomarkers. Serum proteins were enzymatically fragmented through proteolysis, and protein-specific peptides were targeted for quantification of the corresponding protein biomarker levels by immunoaffinity liquid chromatography tandem mass spectrometry (IA-LC-MS/MS) performed as described previously ([48], [49]). For further details, see Supplementary Methods .
The candidate protein biomarkers were quantified via specific peptides analyzed by immunoaffinity liquid chromatography tandem mass spectrometry (IA-LC-MS/MS) assays. For proteolysis, 10 μL of each serum sample was mixed with 50 μL of digestion buffer (100 mM triethanolamine and 0.5% (w/v) n-octylglucoside (NOG)), and proteolysis reagents were added to achieve a final sample volume of 100 µL. The proteolysis procedure included denaturation at 99 °C for 5 minutes, reduction in 5 mM tris(2-carboxyethyl)-phosphine at 22 °C for 5 minutes, alkylation in 10 mM iodoacetamide at 22 °C for 20 minutes and an overnight enzymatic fragmentation at 37 °C with a trypsin-to-protein ratio of 1:20 (assuming a concentration of 60 mg/mL protein in serum). […]
The following peptide transitions were monitored in the mass spectrometer : […] […]

Several values for one entry are separate records, joined by “and”; a condition that tells them apart may be missing. Identical values can stand only once.

In the case of `O=C(O)c1ccc(F)c(F)c1Nc1ccc(I)cc1Cl` [zapnometinib], the “toxicity and tolerability in humans” value in data set [1] is “showed no toxicity and was well tolerated”. Also, the tolerability entry in data set [2] (100 mg/kg then 75 mg/kg daily p.o., both groups) is given as “well tolerated”. In addition, the “viral titers in nasal turbinates” value in data set [2] ([…], did not reach statistical significance) was “trend toward lower mean viral titers”. Also, in data set [2] (hamster, in vivo), the “lung inflammation (infiltrating inflammatory cells, consolidation, decreased air containing space)” value is reported as “less severe”; the “mean body weight loss” value was 8-11%; the “mean viral titer in throat swabs” value was “still lower in the throat swabs of drug-treated animals, although no statistically significant differences”; the “percentage of lung injury in lung tissue (gross pathology)” value is recorded as “significantly reduced”. Besides, in data set [2] (hamster, in vivo), the “reduction in replication-competent virus in throat swabs (TCID50 assay)” value is 1.1 log10 and 1.3 log10; the “reduction of infectious viral titer in nasal turbinates (TCID50 assay)” value was found to be 1.3 log10; the “reduction of viral load in nasal turbinates (RT-qPCR)” value was 1.1 log10; the “viral load in throat swabs” value is listed as “comparable”. Further, the “viral titer reduction (number of viral copies) in throat swabs (RT-qPCR)” value in data set [2] (hamster, in vivo) is 1.1 log10 and 1.2 log10. For the same molecule, the treatment-related adverse effects entry in data set [2] (zapnometinib-treated groups vs vehicle-treated group) is listed as “no treatment-related adverse effects were observed”. In addition, in the data set on human PBMCs, the IL-1β expression level result was “significantly reduced”, the IL-6 expression level result is on record as “significantly reduced”, the IL-8 expression level entry is on record as “significantly reduced” and the IP-10 expression level entry is reported as “significantly reduced”. Besides, in the data set on human PBMCs, the MCP-1 expression level entry is “significantly reduced”, the MIP-1α expression level entry is “significantly reduced” and the TNF-α expression level result was “significantly reduced”. Besides, in the data set on HMGB1, GLDH, SELP (0 dpi vs 4 dpi, 100 mg/kg then 75 mg/kg from +4 or +24 h p.i.), the “levels of safety biomarkers HMGB1, GLDH, SELP in serum” value was “no prominent changes”. Also, the “toxicity of the treatment regimen” value with HMGB1, GLDH, SELP (100 mg/kg followed by 75 mg/kg beginning at +4 or +24 h p.i.) is on record as “not toxic”.
